Reference: US4721707A, “Complex salt” (priority 1982, dated 1988)
“Also recorded” adds a separate entry of the source.

Experiments:
patients = settings: infusion in patients; listed as TMC; cited from earlier work
[1] = Solubility of SNP, TMC, TNP and mixtures (Example 10); format: physicochemical; settings: for amount of solvent giving clear solution: 22° C., SNP 50 mg, TMC 250 mg; for solubility of mixtures / TNP: borderline amount of solvent: 50 + 500 mg (1 + 10)
Protocol: At room temperature (22° C.) clear solutions were obtained in the following solvents from the following compounds: […]

blood pressure [2] = experiment: Infusion dosage required to achieve a given lowering of the blood pressure in a cat under Nembutal narcosis (Table I, FIG. 4); format: in vivo; parameters: key to Infusion dosage required for lowering of blood pressure (symbol): *: Limit of activity and/or predominance of toxic side effects; settings: for Infusion dosage required for lowering of blood pressure / Infusion dosage required for lowering of blood pressure (symbol): i.v. infusion
Protocol: This is evident, for example, from the following experiment:
The various infusion solutions listed below were infused i.v. in succession, with appropriate recovery intervals, into a male, spontaneously respiring cat weighing 3.7 kg under Nembutal narcosis, and the dosages required to achieve a given lowering of the blood pressure were determined.
For the preparation of the infusion solutions, the substances or their concentrated stock solutions were diluted with 0.9% sodium chloride solution to a uniform infusion strength of 9 mg/100 ml (90 ug/ml). All solutions were freshly prepared and infused with the exclusion of light (aluminium foil) corresponding to the dosages given below.
The values given in Table I hereinafter were determined graphically.
FIG. 4, a comparison of equieffective doses of A, B, C, D and E, is derived from the figures in Table I, and further indicates the unobvious superiority of infusion solutions having a weight ration of less than 1:10 of the salts.
On the Y-axis, the weight percent of the trimethaphan ion in trimethaphan camsylate needed to achieve the indicated level of hypotension reduction is always set at 100% for each level, indicating the infusion solution of C. The X-axis measures the weight of nitroprusside ion expressed as a weight percent of the trimethaphan ion needed; B, having no trimethaphan, is set at 0 weight percent. The percents for A, D, and E are as indicated.
The hypotenuse of the triangle indicates the hypotensive effect expected to result from using mixtures of nitroprusside and trimethaphan ions. […] The lower and more to the left the values are, the higher the degree of synergism.

blood pressure [3] = settings: TMC; cited from earlier work
[4] = Solubility of (+)-bis-(trimethaphan)-nitroprusside and its semihydrate (Example 1); format: physicochemical
Excerpt: (§1) The semihydrate forms compact needles from water (1/2H2 O calculated 0.94%, found 1.00%). […] Its solubility in water is 0.2% at room temperature. Its solubility in 60% ethanol is much better, and is about 3% at room temperature.

[5] = format: physicochemical; settings: room temperature; for storability: light excluded
Protocol: as §1
For the preparation of an infusion solution, the ampoule contents are dissolved in at least 220, at most 900 ml of sterile 0.9% sodium chloride solution or 5% glucose solution by vigorous shaking for a short time, whereafter the volume is brought to 250, 500 or 1000 ml. The infusion vessels and tubes are either to be covered with aluminum foil or must consist of material which is opaque to light.
50 mg of finely pulverized (+)-bis-(trimethaphan)-nitroprusside are filled into a sterilized, brown 5 ml flask closable with a synthetic stopper. 3 ml of 60% ethanol are sealed in a solvent ampoule and sterilized. […] Immediately before use the solid substance is dissolved in the solvent and the thus-obtained stock solution is used for the preparation of the infusion solution.

rats = settings: i.v.; cited from earlier work
[6] = Solubility / dissolution of I and of mixtures of I and sodium thiosulphate pentahydrate; format: physicochemical; settings: for solubility in weaker ethanol: weaker than 50% ethanol
Protocol: Mixtures of I and thiosulphate must not however, be heated in solution above 50° C., since otherwise the trimethaphan cation can decompose.
Therefore, the problem arose to find a physiologically acceptable solvent in which a mixture of I and thiosulphate in the weight ratio of about 1:1 to about 1:40 can dissolve to at least 5-10%, in a temperature range which for practical reasons should embrace temperatures between about 15° C. and about 35° C. Moreover, the concentrated solution should be able to dissolve without problem in the amount (250-1000 ml) of physiological sodium chloride solution or isotonic (5%) glucose solution required for final dilution.
For example, the mixture of 50 mg of I and 1000 mg of sodium thiosulphate pentahydrate dissolved

Compound: O=C1N(Cc2ccccc2)C2C[S+]3CCCC3C2N1Cc1ccccc1 (stereo not shown) [C, trimethaphan camsylate, reference compound]
- side effects (patients): tachycardia, mydriasis, cycloplegia, urine retention, xerostomia and constipation; also recorded: nausea or vomiting; also recorded: allergies
- amount of solvent giving clear solution ([1]; 5% dextrose): 10 mL
- amount of solvent giving clear solution ([1]; 40% ethanol): 10 mL
- amount of solvent giving clear solution ([1]; 60% ethanol): 2 mL
- amount of solvent giving clear solution ([1]; water): 10 mL
- Infusion dosage required for lowering of blood pressure (blood pressure [2]; -20 mm Hg, cat): 6.0 ug/kg · min
- Infusion dosage required for lowering of blood pressure (blood pressure [2]; -30 mm Hg, cat): 18 ug/kg · min
- Infusion dosage required for lowering of blood pressure (blood pressure [2]; -40 mm Hg, cat): 55 ug/kg · min
- Infusion dosage required for lowering of blood pressure (symbol) (blood pressure [2]; -50 mm Hg, cat): *
- Infusion dosage required for lowering of blood pressure (symbol) (blood pressure [2]; -55 mm Hg, cat): *
- Infusion dosage required for lowering of blood pressure (symbol) (blood pressure [2]; -75 mm Hg, cat): *
- activity compared with other test substances (in words) (blood pressure [2]; cat, comparison among A to E): significantly less active
- limit of activity (blood pressure [2]; lowering of blood pressure, cat): -40 mm Hg
- dosage required for the controlled lowering of blood pressure (blood pressure [3]): about 30 ug/kg or more per minute

Compound: (+)-bis-/(3aS,8aR,8bR)-1,3-dibenzyldecahydro-2-oxoimidazo[4,5-c]thieno[1,2-a]thiolium/nitrosylpentacyano-ferrate
- solubility in aqueous ethanol ([4]; aqueous ethanol): dissolves readily
- solubility in water, absolute ethanol and cyclohexane ([4]; water, absolute ethanol and cyclohexane): only very slightly soluble
- Infusion dosage required for lowering of blood pressure (blood pressure [2]; -20 mm Hg, cat): 1.5 ug/kg · min
- Infusion dosage required for lowering of blood pressure (blood pressure [2]; -30 mm Hg, cat): 2.3 ug/kg · min
- Infusion dosage required for lowering of blood pressure (blood pressure [2]; -40 mm Hg, cat): 3.5 ug/kg · min
- Infusion dosage required for lowering of blood pressure (blood pressure [2]; -50 mm Hg, cat): 5.8 ug/kg · min
- Infusion dosage required for lowering of blood pressure (blood pressure [2]; -55 mm Hg, cat): 7.8 ug/kg · min
- Infusion dosage required for lowering of blood pressure (blood pressure [2]; -75 mm Hg, cat): 40 ug/kg · min
- limit of activity (in words) (blood pressure [2]; compared with all the other substances or mixtures): significantly higher limit of activity than all the other substances or mixtures
- strength of activity (in words) (blood pressure [2]; slight lowering of the blood pressure (to -30 mm Hg)): approximately comparable strengths of activity; also recorded: shows up best
- storability [5]: can be stored for a very long time

Compound: bis-(trimethaphan)-nitroprusside semihydrate
- solubility in 60% ethanol ([4]; room temperature): about 3%
- solubility in water ([4]; room temperature): 0.2%
- stability at storage [5]: stable
- water loss at storage [5]: does not lose water

Compound: O=S([O-])([O-])=S.[Na+].[Na+] [sodium thiosulphate, reference compound]
- LD50 (rats): 2500 mg/kg
- solubility in over 40% ethanol ([6]; especially at temperatures <50° C.): only very limited solubility
- solubility in weaker ethanol [6]: better solubility

Compound: bis-(trimethaphan)-nitroprusside
- ethanol concentration required for concentrated stock solution ([6]; ethanol-water, room temperature (22° C.), FIG. 1): at least 40%
- solubility in water (in words) ([6]; water): poorly soluble in water
- solubility in weaker ethanol [6]: no longer completely soluble
- solubility of mixtures / TNP: borderline amount of solvent ([1]; 5% dextrose, 125 + 500 mg (1 + 4), TNP 40 mg (highly purified product)): 100 mL
- solubility of mixtures / TNP: borderline amount of solvent ([1]; 40% ethanol, TNP 40 mg): 25 mL
- solubility of mixtures / TNP: borderline amount of solvent ([1]; 60% ethanol, 125 + 500 mg (1 + 4), TNP 40 mg): 2 mL
- synergistic activity (blood pressure [2]; nitroprusside and trimethaphan ions in molar ratio 1:2, FIG. 4 / Table I): maximum synergistic activity
- storability [5]: can be stored without further additives
